Measurements published in patent US20240251790A1 (priority 2021, published 2024).
Where two headings read alike, the source gives them in different places.

How the values were obtained:
Assay type in all cases: cell-based
[1] = tested on: all microbial populations tested (APC, ECC, YM); test: Micro tests on barley grains, all microbial populations tested (APC, ECC, YM)
Method: The treatment was performed at 20° C. as follows: 100 ml of PAA solution at 500 ppm (unadjusted or adjusted to pH=9.0) were applied to 10.0 g of wet barley grains. Solutions with the grains were then shaken for 30 seconds and then the acid solution was neutralized by addition of 0.5 g sodium thiosulfate. The solutions were then used to evaluate effect of PAA treatment on total microbial count (APC), coliforms (ECC), and yeast and mold (YM). Control samples were treated with DI water.
Each sample was diluted serially into Butterfield's phosphate buffer, and the dilutions were plated on Petrifilm™ (3M, Minneapolis, MN) plates specific for different types of microorganisms. The plates were incubated for 48 hours at 35° C. for APC, and for 5 days at 25° C. for YM. For ECC, the incubation was done at 35° C. for 24 hours, then coliforms were counted, and incubation continued for an additional 24 hours at 35° C. Grown colonies on plates were counted and expressed in CFU/10 g barley grains for each treatment. The tests were done in duplicates.

yeast and mold (YM) = details: 500 ppm PAA
[2] = tested on: total microbial count (APC); details: 500 ppm PAA
[3] = germinated barley treated before kilning, pH = 3, 30 s, testing after germination, * = complete kill
[4] = germinated barley treated before kilning, pH = 3, 30 s, testing after kilning, * = complete kill
[5] = germinated barley treated before kilning, pH = 9, 30 s, testing after germination
[6] = germinated barley treated before kilning, pH = 9, 30 s, testing after kilning, * = complete kill
[7] = germinated barley, pH = 3.1, 30 seconds
[8] = germinated barley, pH = 9.0, 30 seconds
[9] = steeped barley, pH = 3.1 (unadjusted), 30 seconds, 20° C.
[10] = steeped barley, pH = 9.0, 30 seconds, 20° C.
[11] = steeped barley, pH = 10.0, 30 s
[12] = steeped barley, unadjusted (pH=3.1), 5 s
[13] = steeped barley, unadjusted (pH=3.1), 30 s
[14] = germinated barley treated before kilning, pH = 3, 30 s, testing after germination
[15] = germinated barley treated before kilning, pH = 3, 30 s, testing after kilning
[16] = germinated barley treated before kilning, pH = 9, 30 s, testing after kilning

In the case of `CC(=O)OO` [PAA, peracetic acid], the “reduction of all microorganisms” value ([1]; germinated barley, unadjusted PAA 500 ppm, 30 seconds (Example 2)) is reported as 1-2 Log10, the reduction ([1]; steeped barley, 500 ppm PAA at higher pH (pH=9.0), given sufficient time (Example 4)) is reported as 2-3 Log10 and the “reduction of all microorganisms” value ([1]; steeped barley, 500 ppm PAA, 30 s (Example 4)) is reported as 2.0-4.5 Log10. The “reduction in all microbial populations tested” value ([1]; steeped barley, 500 ppm PAA, 30 seconds, pH 3.1 and 9.0 (Example 1)) was 1.5-2.1 Log10, the “YM Log10” value (yeast and mold (YM); [3]) was 0.00* Log10 and the “YM Log10 Reduction” value (yeast and mold (YM); [3]) was 4.67* Log10. For the same compound, the “YM Log10” value (yeast and mold (YM); [4]) was 0.00* Log10, the “YM Log10 Reduction” value (yeast and mold (YM); [4]) was 2.00* Log10 and the “YM Log10” value (yeast and mold (YM); [5]) was 2.92 Log10. For the same compound, the “YM Log10 Reduction” value (yeast and mold (YM); [5]) was 1.75 Log10, the “YM Log10” value (yeast and mold (YM); [6]) was 0.00* Log10 and the “YM Log10 Reduction” value (yeast and mold (YM); [6]) was 2.00* Log10. For the same compound, the “YM Log10 (CFU/10 g barley grains)” value (yeast and mold (YM); [7]) was 3.60 Log10, the “YM Log10 Reduction” value (yeast and mold (YM); [7]) was 1.86 Log10 and the “YM Log10 (CFU/10 g barley grains)” value (yeast and mold (YM); [8]) was 3.83 Log10. For the same compound, the “YM Log10 Reduction” value (yeast and mold (YM); [8]) was 1.63 Log10, the “YM Log10 (CFU/10 g barley grains)” value (yeast and mold (YM); [9]) was 3.84 Log10 and the “YM Log10 Reduction” value (yeast and mold (YM); [9]) was 1.75 Log10. For the same compound, the “YM Log10” value (yeast and mold (YM); steeped barley, pH = 6.5, 5 s) was 1.30 Log10, the “YM Log10 Reduction” value (yeast and mold (YM); steeped barley, pH = 6.5, 5 s) was 2.46 Log10 and the “YM Log10” value (yeast and mold (YM); steeped barley, pH = 6.5, 30 s) was 0.00 Log10. For the same compound, the “YM Log10 Reduction” value (yeast and mold (YM); steeped barley, pH = 6.5, 30 s) was 3.76 Log10, the “YM Log10” value (yeast and mold (YM); steeped barley, pH = 9, 5 s) was 3.86 Log10 and the “YM Log10 Reduction” value (yeast and mold (YM); steeped barley, pH = 9, 5 s) was 0.62 Log10. The “YM Log10” value (yeast and mold (YM); steeped barley, pH = 9, 30 s) was 2.60 Log10, the “YM Log10 Reduction” value (yeast and mold (YM); steeped barley, pH = 9, 30 s) was 1.88 Log10 and the “YM Log10 (CFU/10 g barley grains)” value (yeast and mold (YM); [10]) was 4.06 Log10. The “YM Log10 Reduction” value (yeast and mold (YM); [10]) was 1.53 Log10, the “YM Log10” value (yeast and mold (YM); steeped barley, pH = 9, 10 min) was 2.80 Log10 and the “YM Log10 Reduction” value (yeast and mold (YM); steeped barley, pH = 9, 10 min) was 1.79 Log10. The “YM Log10” value (yeast and mold (YM); steeped barley, pH = 10.0, 5 s) was 3.52 Log10, the “YM Log10 Reduction” value (yeast and mold (YM); steeped barley, pH = 10.0, 5 s) was 0.24 Log10 and the “YM Log10” value (yeast and mold (YM); [11]) was 3.16 Log10. The “YM Log10 Reduction” value (yeast and mold (YM); [11]) was 0.60 Log10, the “YM Log10” value (yeast and mold (YM); [12]) was 2.95 Log10 and the “YM Log10 Reduction” value (yeast and mold (YM); [12]) was 1.53 Log10. For the same compound, the “YM Log10” value (yeast and mold (YM); [13]) was 0.00 Log10, the “YM Log10 Reduction” value (yeast and mold (YM); [13]) was 4.48 Log10 and the “APC Log10” value [2, 14] was 7.22 Log10. For the same compound, the “APC Log10 Reduction” value [2, 14] was 1.47 Log10, the “APC Log10” value [2, 15] was 3.78 Log10 and the “APC Log10 Reduction” value [2, 15] was 2.59 Log10. For the same compound, the “APC Log10” value [2, 5] was 7.86 Log10, the “APC Log10 Reduction” value [2, 5] was 0.83 Log10 and the “APC Log10” value [2, 16] was 5.14 Log10. The “APC Log10 Reduction” value [2, 16] was 1.23 Log10, the “APC Log10 (CFU/10 g barley grains)” value [2, 7] was 7.23 Log10 and the “APC Log10 Reduction” value [2, 7] was 1.98 Log10. The “APC Log10 (CFU/10 g barley grains)” value [2, 8] was 8.01 Log10, the “APC Log10 Reduction” value [2, 8] was 1.20 Log10 and the “APC Log10 (CFU/10 g barley grains)” value [2, 9] was 6.99 Log10. For the same compound, the “APC Log10 Reduction” value [2, 9] was 2.16 Log10, the “APC Log10” value ([2]; steeped barley, pH = 6.5, 5 s) was 7.34 Log10 and the “APC Log10 Reduction” value ([2]; steeped barley, pH = 6.5, 5 s) was 1.73 Log10. For the same compound, the “APC Log10” value ([2]; steeped barley, pH = 6.5, 30 s) was 6.51 Log10, the “APC Log10 Reduction” value ([2]; steeped barley, pH = 6.5, 30 s) was 2.56 Log10 and the “APC Log10” value ([2]; steeped barley, pH = 9, 5 s) was 7.97 Log10. The “APC Log10 Reduction” value ([2]; steeped barley, pH = 9, 5 s) was 0.51 Log10, the “APC Log10” value ([2]; steeped barley, pH = 9, 30 s) was 6.72 Log10 and the “APC Log10 Reduction” value ([2]; steeped barley, pH = 9, 30 s) was 1.75 Log10. The “APC Log10 (CFU/10 g barley grains)” value [2, 10] was 7.34 Log10, the “APC Log10 Reduction” value [2, 10] was 1.81 Log10 and the “APC Log10” value ([2]; steeped barley, pH = 9, 10 min) was 6.25 Log10. For the same compound, the “APC Log10 Reduction” value ([2]; steeped barley, pH = 9, 10 min) was 2.23 Log10 and the “APC Log10” value ([2]; steeped barley, pH = 10.0, 5 s) was 8.28 Log10.
